Activity calls are given as the source filed them.
Columns and labels:
[1] = target: T1, Delta-type opioid receptor (Homo sapiens, UniProt P41143); assay: HTS Image-Based Screen for Antagonists of the DOR Receptor. [Related pubchem assays (depositor defined):AID1777, AID1785, AID1786, AID2133]; assay type: functional
[2] = target: T2, Kappa-type opioid receptor (Homo sapiens, UniProt P41145); assay type: functional
[3] = target: T2, Kappa-type opioid receptor; assay: KOR agonist analogs, imaging readout, SAR follow-up, image-based (AID 2359); assay type: functional
[4] = target: T1, Delta-type opioid receptor; assay: HTS Image-Based Screen for Agonists of the DOR Receptor. [Related pubchem assays (depositor defined):AID1777, AID1786, AID2133]; assay type: functional
[5] = target: T3, Mu-type opioid receptor (Homo sapiens, UniProt P35372); assay: HTS Image-Based Screen for Agonists of the MOR Receptor. [Related pubchem assays (depositor defined):AID1777, AID1785, AID1786, AID2133]; assay type: functional
T3 sequence (P35372 whole entry): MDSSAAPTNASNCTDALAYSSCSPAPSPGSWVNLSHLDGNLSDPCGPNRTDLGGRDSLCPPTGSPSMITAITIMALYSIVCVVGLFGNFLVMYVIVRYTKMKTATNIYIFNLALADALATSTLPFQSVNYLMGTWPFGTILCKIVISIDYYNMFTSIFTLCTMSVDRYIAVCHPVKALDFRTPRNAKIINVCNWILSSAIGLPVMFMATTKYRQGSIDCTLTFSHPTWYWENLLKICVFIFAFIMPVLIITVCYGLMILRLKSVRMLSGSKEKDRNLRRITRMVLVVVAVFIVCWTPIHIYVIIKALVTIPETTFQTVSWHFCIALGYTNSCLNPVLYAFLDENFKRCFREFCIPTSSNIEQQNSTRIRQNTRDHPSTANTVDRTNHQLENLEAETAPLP

[6] = target: T2, Kappa-type opioid receptor; assay: SAR analysis of small molecule agonists of the kappa opioid receptor via a luminescent beta-arrestin assay. [Related pubchem assays (depositor defined):AID1777, AID1786, AID1966, AID2133, AID2136, AID2348, AID2352, AID2357, AID2359, AID2370, AID2420, AID2478, AID2491, AID2492, AID2493, AID2497, AID2498, AID2500, AID449737, AID488822, AID488842]; assay type: functional
[7] = target: T2, Kappa-type opioid receptor; assay: KOR antagonists by imaging, SAR follow-up, image-based (AID 2348); assay type: functional
[8] = target: T1, Delta-type opioid receptor; assay: DOR agonists, SAR follow-up, image-based (AID 2370); assay type: functional
[9] = target: T1, Delta-type opioid receptor; assay: DOR antagonists, SAR follow-up, image-based (AID 2357); assay type: functional
[10] = target: T3, Mu-type opioid receptor; assay: MOR agonists by imaging, SAR follow-up, image-based (AID 2352); assay type: functional
[11] = target: T3, Mu-type opioid receptor; assay: MOR antagonists, SAR follow-up, image-based (AID 2420); assay type: functional;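 note: compounds added before stimulation of receptor with agonist DAMGO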
[12] = target: T2, Kappa-type opioid receptor; assay type: functional; remark: listed apart in the source
[13] = test system: INS1; assay: beta cell apoptosis inhibitors, cytokine rescue, dose response, luminescence, retest (AID 449756); assay type: functional, cell-based; conditions: Rattus norvegicus;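 note: cell death triggered by IL-1 beta plus TNF-alpha plus IFN-gamma mixture; protective hits raise ATP signal compared with cytokine alone wells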
[14] = THP-1 cell cytotoxicity, dose response, cytotoxicity control for non-replicating M. tuberculosis project (AID 489025); assay type: functional
[15] = microbe, parasite or virus in culture; assay type: functional; conditions: Mycobacterium tuberculosis
[16] = test system: BJ; assay: cytotoxicity toward BJ-TERT-LT-ST fibroblasts, dose response, cell-based, RAS-independent, luminescence (AID 1935); assay type: functional; conditions: Homo sapiens;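 note: BJ fibroblasts immortalized with TERT plus LT and ST oncogenes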
[17] = cytotoxicity toward DRD oncogenic fibroblasts, dose response, cell-based, non-viral oncogenic, luminescence (AID 1934); assay type: functional; conditions: Homo sapiens
[18] = Vero E6 cell cytotoxicity, dose response, cytotoxicity control for non-replicating M. tuberculosis project, secondary assay (AID 492998); assay type: functional, VeroE6; conditions: Vero C1008
[19] = test system: BJ; assay: cells; assay type: functional, cell-based; conditions: Homo sapiens
[20] = target: Lysine-specific demethylase 4A (Homo sapiens, UniProt O75164); assay: JMJD2A histone demethylase inhibitors, dose response, selectivity assay for GASC-1 inhibitor project, biochemical, DELFIA europium, cherry-picked samples (AID 488840)
Lysine-specific demethylase 4A, sequence (O75164 whole entry): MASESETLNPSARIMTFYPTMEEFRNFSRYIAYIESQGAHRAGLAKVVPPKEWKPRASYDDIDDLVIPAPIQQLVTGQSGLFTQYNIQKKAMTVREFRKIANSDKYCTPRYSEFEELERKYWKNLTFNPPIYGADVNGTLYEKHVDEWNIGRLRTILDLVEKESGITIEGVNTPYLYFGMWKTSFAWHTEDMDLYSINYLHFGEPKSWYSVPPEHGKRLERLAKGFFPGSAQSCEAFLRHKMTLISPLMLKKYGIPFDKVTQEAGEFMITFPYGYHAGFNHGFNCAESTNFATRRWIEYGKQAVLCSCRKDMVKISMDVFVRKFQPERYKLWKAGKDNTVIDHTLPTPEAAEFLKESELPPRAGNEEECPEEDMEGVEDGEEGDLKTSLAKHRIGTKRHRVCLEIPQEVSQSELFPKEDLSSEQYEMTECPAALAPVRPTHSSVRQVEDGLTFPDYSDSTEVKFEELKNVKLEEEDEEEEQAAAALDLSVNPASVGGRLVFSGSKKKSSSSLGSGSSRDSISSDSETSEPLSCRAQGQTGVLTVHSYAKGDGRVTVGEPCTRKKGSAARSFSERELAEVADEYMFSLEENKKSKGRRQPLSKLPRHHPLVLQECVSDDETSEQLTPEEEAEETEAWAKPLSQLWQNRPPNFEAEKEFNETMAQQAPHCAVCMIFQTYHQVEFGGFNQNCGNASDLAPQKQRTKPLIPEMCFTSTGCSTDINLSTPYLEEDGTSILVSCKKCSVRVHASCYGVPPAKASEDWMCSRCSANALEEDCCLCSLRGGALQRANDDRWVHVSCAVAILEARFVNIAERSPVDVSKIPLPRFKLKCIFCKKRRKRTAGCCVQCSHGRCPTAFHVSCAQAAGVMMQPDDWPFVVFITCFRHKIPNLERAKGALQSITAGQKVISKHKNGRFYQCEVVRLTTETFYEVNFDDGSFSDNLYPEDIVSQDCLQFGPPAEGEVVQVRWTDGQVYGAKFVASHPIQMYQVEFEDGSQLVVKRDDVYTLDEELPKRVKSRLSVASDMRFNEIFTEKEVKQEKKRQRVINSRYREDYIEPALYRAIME

[21] = target: Nonstructural protein 1 (Influenza A virus, UniProt Q194T2); assay type: functional, Influenza A virus (A/California/07/2009(H1N1))
Nonstructural protein 1, sequence (Q194T2 whole entry): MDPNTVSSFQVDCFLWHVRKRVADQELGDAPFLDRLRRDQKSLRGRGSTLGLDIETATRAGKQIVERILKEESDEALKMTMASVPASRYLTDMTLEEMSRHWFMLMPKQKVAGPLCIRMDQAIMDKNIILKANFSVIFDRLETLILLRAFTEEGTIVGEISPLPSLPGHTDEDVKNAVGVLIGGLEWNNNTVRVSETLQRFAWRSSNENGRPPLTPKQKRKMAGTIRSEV

[22] = cells; assay type: functional
[23] = test system: BJ; assay: cytotoxicity toward BJ-TERT fibroblasts, dose response, cell-based, RAS-independent, luminescence (AID 1933); assay type: functional; conditions: Homo sapiens
[24] = target: Lysine-specific demethylase 4C (Homo sapiens, UniProt Q9H3R0); assay: GASC-1 (JMJD2C) histone demethylase inhibitors, dose response, biochemical, DELFIA europium, cherry-picked samples (AID 488835); assay type: functional
Lysine-specific demethylase 4C, sequence (Q9H3R0 whole entry): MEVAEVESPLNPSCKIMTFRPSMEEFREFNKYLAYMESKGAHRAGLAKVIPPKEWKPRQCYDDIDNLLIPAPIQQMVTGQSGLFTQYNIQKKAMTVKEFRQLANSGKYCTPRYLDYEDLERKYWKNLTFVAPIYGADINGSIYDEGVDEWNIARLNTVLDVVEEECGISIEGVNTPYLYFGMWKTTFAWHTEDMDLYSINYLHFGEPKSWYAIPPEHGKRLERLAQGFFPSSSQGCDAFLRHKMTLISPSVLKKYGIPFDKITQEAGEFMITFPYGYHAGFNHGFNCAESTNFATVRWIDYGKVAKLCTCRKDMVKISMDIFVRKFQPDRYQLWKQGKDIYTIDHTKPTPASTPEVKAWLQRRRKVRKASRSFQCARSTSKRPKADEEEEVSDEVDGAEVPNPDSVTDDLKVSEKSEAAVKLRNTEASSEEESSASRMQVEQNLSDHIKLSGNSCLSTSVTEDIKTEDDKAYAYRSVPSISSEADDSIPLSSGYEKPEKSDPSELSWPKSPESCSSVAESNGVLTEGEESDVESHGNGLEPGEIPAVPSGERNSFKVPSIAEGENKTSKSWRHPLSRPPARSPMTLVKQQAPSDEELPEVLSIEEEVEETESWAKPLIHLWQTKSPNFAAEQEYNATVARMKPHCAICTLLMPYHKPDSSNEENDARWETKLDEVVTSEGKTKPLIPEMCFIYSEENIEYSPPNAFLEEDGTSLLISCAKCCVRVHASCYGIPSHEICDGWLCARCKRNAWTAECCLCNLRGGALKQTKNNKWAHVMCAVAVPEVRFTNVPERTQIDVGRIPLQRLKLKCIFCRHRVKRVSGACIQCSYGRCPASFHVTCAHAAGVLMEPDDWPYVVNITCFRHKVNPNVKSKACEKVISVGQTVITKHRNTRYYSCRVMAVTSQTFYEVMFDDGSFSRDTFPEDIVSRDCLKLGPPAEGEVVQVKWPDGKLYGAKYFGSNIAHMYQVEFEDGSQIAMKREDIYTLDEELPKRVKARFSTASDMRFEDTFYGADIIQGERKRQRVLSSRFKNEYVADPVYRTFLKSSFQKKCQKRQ

T1 sequence (P41143 whole entry): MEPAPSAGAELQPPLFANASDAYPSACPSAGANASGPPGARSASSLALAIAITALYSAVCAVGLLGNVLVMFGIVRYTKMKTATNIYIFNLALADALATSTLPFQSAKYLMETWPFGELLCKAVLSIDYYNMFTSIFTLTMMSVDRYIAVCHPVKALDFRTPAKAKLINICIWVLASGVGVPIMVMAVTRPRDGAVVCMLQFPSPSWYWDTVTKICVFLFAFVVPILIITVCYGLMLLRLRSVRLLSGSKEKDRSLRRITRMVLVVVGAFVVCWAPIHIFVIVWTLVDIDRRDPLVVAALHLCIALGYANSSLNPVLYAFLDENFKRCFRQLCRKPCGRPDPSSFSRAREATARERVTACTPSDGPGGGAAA
T2 sequence (P41145 whole entry): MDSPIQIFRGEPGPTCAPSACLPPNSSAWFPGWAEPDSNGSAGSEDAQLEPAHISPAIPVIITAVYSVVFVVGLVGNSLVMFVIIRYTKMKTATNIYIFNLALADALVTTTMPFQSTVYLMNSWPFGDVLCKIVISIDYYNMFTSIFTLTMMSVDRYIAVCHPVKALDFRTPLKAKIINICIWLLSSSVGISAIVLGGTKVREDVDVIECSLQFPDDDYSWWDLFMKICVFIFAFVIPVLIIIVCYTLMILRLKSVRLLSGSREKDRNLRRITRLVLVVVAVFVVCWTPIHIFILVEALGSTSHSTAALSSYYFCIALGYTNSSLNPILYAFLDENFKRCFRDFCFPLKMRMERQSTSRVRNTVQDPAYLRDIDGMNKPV

Structure (SMILES): CCCCN(Cc1cc2ccccc2nc1O)C(=O)c1ccccn1
- IC50 [1]: > 32 µM (inactive)
- EC50 [2]: 3.16 µM
- EC50 [3]: 5.31 µM (active)
- EC50 [4]: > 32 µM (inactive)
- EC50 [5]: > 32 µM (inactive)
- EC50 [6]: 8.1 µM (active)
- IC50 [7]: > 32 µM (inactive)
- EC50 [8]: > 32 µM (inactive)
- IC50 [9]: > 32 µM (inactive)
- EC50 [10]: > 32 µM (inactive)
- IC50 [11]: > 32 µM (inactive)
- EC50 [12]: 4.27 µM

Structure (SMILES): N#C/C(N=Nc1ccccc1O)=N\Nc1ccccc1O
- AC50 [13]: 2.3 µM (active)
- CC50 [14]: 3.15 µM (active)
- CC50 [15]: 4.13 µM (active)
- EC50 [16]: 6.76 µM (active)
- EC50 [17]: 8.75 µM (active)
- CC50 [18]: 7.05 µM (active)
- EC50 [19]: 7.91 µM (active)
- AC50 [20]: 3.37 µM (active)
- IC50 [21]: 10.9 µM (active)
- IC50 [22]: 1.29 µM (active)
- EC50 [23]: 5.98 µM (active)
- AC50 [24]: 0.388 µM (active)
